We go through 3 compounds from patent US11311561B2, “Composition and method for treating, relieving or preventing neuropathic pain, containing choline alfoscerate as active ingredient” (NANOSTEM CO., LTD., priority 2017, dated 2022).

The subject of series [1] is spared nerve injury (SNI) rat model. In words: Von Frey filament test (50% up and down threshold) for mechanical allodynia. Format: in vivo, Sprague-Dawley (SD) male rats. The conditions noted are these: for Mechanical threshold (von Frey), Before: 4 weeks after surgery, before drug treatment; for Effect on mechanical allodynia (in words): pregabalin 30 mg/kg or choline alfoscerate 325 mg/kg ip once a day for one week. From the text: The spared nerve injury (SNI) rat model was used as an efficient neuropathic pain model and von Freytest was used for assessing mechanical threshold. The SNI model, one of the peripheral nerve injury models that made from the 3 nerve branches (sciatic nerve), the one was spared, and the other 2 nerves (tibial, common peroneal nerve) were axotomized. Within 4 days of injury, mechanical and thermal hyperalgesia occurs, lasting weeks to up to 6 months.
Sprague-Dawley (SD) male rats (Koatech, South Korea) weighing 100-150 g, were used to generate neuropathic pain rat models. The rats were maintained under specifically controlled conditions (ambient temperature 23±2° C., 12-h light/dark cycle). Food pellets (DBL, Chungbuk, South Korea) and water were supplied ad libitum. All procedures complied with Institutional Animal Care and Use Committee of Dankook University (IACUC, South Korea), which adheres to the guidelines issued by the Institution of Laboratory of Animal Resources.
After surgery, rats were divided into three groups: (1) control (0.9% normal saline), (2) pregabalin (30 mg/kg), (3) choline alfoscerate (325 mg/kg).
Four weeks later after surgery, Drugs were injected intraperitoneally once a day for one week.
To generate an efficient neuropathic pain model, the rats were anesthetized under 3% isoflurane (Hana Pharm., South Korea), the left calf of the rat leg was incised and the common peroneal and the tibial nerve of three peripheral nerve branches in the sciatic nerve were axotomized and the sural nerve was spared then the surgical site was closed. After the surgery, animals were placed in the home cage to recover. 2 weeks after surgery, hypersensitivity will occur in the lateral area of the rat left hind paw.
4 weeks later after surgery, we applied von Frey filament test established by 50% up and down threshold method for evaluate mechanical allodynia in SNI model we made (Chaplan et al. 1994). The pain measurement was carried out by three people in order to objectify the results. Rats were habituated 5 minutes in the apparatus. […] We stimulated 5 times in the ventral aspect of rat left paw using each filament from thick to thin. If the rat response to stimulate over 3 times, we considered that the rat has NP. The pain response was determined by the behaviors of the rats suddenly took off their foot and shrank or licked their foot with their tongues. The behavioural patterns of the pain were recorded to calculate the threshold value of the pain.
4 weeks after surgery, when the mechanical stimuli were applied to the left paw of rats using von Frey monofilaments, thresholds were calculated by looking at the behavioral patterns. Through this test, the behavioral patterns that appeared when mechanical stimuli were applied to the neuropathic pain model and expressed as threshold which was a […] assessment of the pain scoring.

Series [2] can be described thus: Clinical trial: side effects after the treatment. Format: in vivo, human. The conditions noted are these: Example 1: iv 1 g twice a week; Example 2: oral 400 mg 3 times a day; patients. The protocol:
(§1) The “nerve block treatment group (control group)” patients were injected with 5 mL of 0.5% lidocaine at the sites of pain (4-5 points), once a week.
(§2) The “choline alfoscerate intravenous administration group (Example 1)” patients were intravenously injected slowly with choline alfoscerate (1 g/4 mL) mixed in 100 mL of physiological saline, twice a week.
(§3) The “choline alfoscerate oral administration group (Example 2)” patients were […] with choline alfoscerate (400 mg/capsule), 3 times a day.
Because choline alfoscerate has no effect on the kidney and liver, it is thought that it can be used for people with kidney or liver problems as a therapeutic agent for neuropathic pain.

Series [3] deals with patients with neuropathic pain. In words: Clinical trial: pain intensity by 11-point pain intensity numerical rating scale (PI-NRS) over 12 weeks. Format: in vivo, human.
From the text: Patients with neuropathic pain were selected as subjects. The patients were asked to report the characteristics of neuropathic pain (type of neuropathic pain, site of occurrence, time of occurrence and frequency of occurrence), causative factors of pain, presence of diseases and relationship with pain, relationship between pain and drug medication, medication of therapeutic agents for pain, etc.
The characteristics of “nerve block treatment group (control group)” patients are described in Table 1, the characteristics of “choline alfoscerate intravenous administration group (Example 1)” patients are described in Table 2 and the characteristics of “choline alfoscerate oral administration group (Example 2)” patients are described in Table 3.
as §1, §2, §3
Pain intensity was measured for 12 weeks. The pain intensity was evaluated according to the 11-point pain intensity numerical rating scale (PI-NRS), where 0=no pain, weakest pain=1 and most severe pain=10. 2-point reduction in the pain intensity was considered clinically significant as reported (Farrar 2001, Rowbotham 2001, Hawker 2011). The pain intensity was measured on the first visit (T0) and was compared with the pain intensity 2 weeks (T1), 4 weeks (T2), 6 weeks (T3), 8 weeks (T4), 10 weeks (T5) and 12 weeks (T6) after the first drug administration.
Statistical analysis was conducted using the SASS package ver. 23 and significance was tested by the paired t-test.

The structures appear in SMILES notation. Values joined by “and” are separate entries in the source; they are usually repeats but may differ in a detail not shown here. Equal entries are not always repeated.

`C[N+](C)(C)CCOP(=O)([O-])OC[C@H](O)CO` [Choline alfoscerate, choline alfoscerate]: the “Mechanical threshold (von Frey), Before” value in series [1] (choline alfoscerate group) is on record as 2.59 ± 0.87 g. In addition, the “Mechanical threshold (von Frey), After” value in series [1] (after choline alfoscerate 325 mg/kg intraperitoneally once a day for one week) was 7.68 ± 4.48 g. Further, in series [1], the “Effect on mechanical allodynia (in words)” value is recorded as “significantly suppressed mechanical allodynia”. Moreover, in series [2], the “Side effect after the treatment” value is reported as “no side effect”. Moreover, the “Change in pain intensity of neuropathic pain (in words)” value in series [3] (Example 1: iv 1 g twice a week, Example 2: oral 400 mg 3 times a day, 12 weeks) is given as “significant decrease in the pain intensity”. In addition, the “Time after drug administration at which some patients reported decreased neuropathic pain” value in series [3] (Example 1: iv, Example 2: oral, some patients) is “the next day”. Further, the “Pain intensity (PI-NRS)” value in series [3] (T0, first visit before drug administration, choline alfoscerate iv group, 1 g/4 mL in 100 mL saline twice a week, n=59, listed as Example 1) is 6.64 points and 6.64 ± 1.03 points; in series [3] (T0, first visit before drug administration, choline alfoscerate oral group, 400 mg/capsule 3 times a day, n=54, listed as Example 2), 6.61 points and 6.61 ± 0.83 points; in series [3] (T1, 2 weeks after first administration, choline alfoscerate iv 1 g twice a week, listed as Example 1), 5.19 points and 5.19 ± 1.59 points; in series [3] (T1, 2 weeks after first administration, choline alfoscerate oral 400 mg 3 times a day, listed as Example 2) it was 5.41 points and 5.41 ± 1.16 points; in series [3] (T2, 4 weeks, choline alfoscerate iv 1 g twice a week) it was 4.56 ± 1.50 points; in series [3] (T2, 4 weeks, choline alfoscerate oral 400 mg 3 times a day) it was 4.52 ± 1.42 points. The “Pain intensity (PI-NRS)” value amounted to 3.92 ± 1.42 points in series [3] (T3, 6 weeks, choline alfoscerate iv 1 g twice a week); 3.63 ± 1.45 points in series [3] (T3, 6 weeks, choline alfoscerate oral 400 mg 3 times a day); 3.34 ± 1.21 points in series [3] (T4, 8 weeks, choline alfoscerate iv 1 g twice a week); 3.00 ± 1.23 points in series [3] (T4, 8 weeks, choline alfoscerate oral 400 mg 3 times a day); 2.85 ± 1.10 points in series [3] (T5, 10 weeks, choline alfoscerate iv 1 g twice a week); 2.59 ± 1.13 points in series [3] (T5, 10 weeks, choline alfoscerate oral 400 mg 3 times a day). Also, the “Pain intensity (PI-NRS)” value in series [3] (T6, 12 weeks, choline alfoscerate iv 1 g twice a week, listed as Example 1) was 2.46 points and 2.46 ± 0.99 points; in series [3] (T6, 12 weeks, choline alfoscerate oral 400 mg 3 times a day, listed as Example 2) it was 2.13 points and 2.13 ± 0.99 points. In addition, the “Decrease in pain intensity (PI-NRS) from T0” value in series [3] (T0 to T6 (12 weeks), choline alfoscerate iv 1 g twice a week) was 4.18 points; in series [3] (T0 to T6 (12 weeks), choline alfoscerate oral 400 mg 3 times a day) it was 4.48 points.
As to `CCN(CC)CC(=O)Nc1c(C)cccc1C` [Control group, lidocaine], the “Pain intensity (PI-NRS)” value in series [3] (T0, first visit before drug administration, nerve block group, 5 mL of 0.5% lidocaine at sites of pain once a week, n=38) came to 7.00 ± 0.52 points; in series [3] (T0, first visit before drug administration, nerve block group, 5 mL of 0.5% lidocaine at sites of pain once a week, n=38, listed as control group), 7.00 points; in series [3] (T1, 2 weeks after first administration, nerve block 0.5% lidocaine once a week), 5.39 ± 0.89 points; in series [3] (T1, 2 weeks after first administration, nerve block 0.5% lidocaine once a week, listed as control group), 5.39 points; in series [3] (T2, 4 weeks, nerve block 0.5% lidocaine once a week), 4.66 ± 0.85 points; in series [3] (T3, 6 weeks, nerve block 0.5% lidocaine once a week), 3.63 ± 0.79 points. The “Pain intensity (PI-NRS)” value was found to be 2.87 ± 0.81 points in series [3] (T4, 8 weeks, nerve block 0.5% lidocaine once a week); 2.37 ± 0.79 points in series [3] (T5, 10 weeks, nerve block 0.5% lidocaine once a week); 2.24 ± 0.91 points in series [3] (T6, 12 weeks, nerve block 0.5% lidocaine once a week); 2.24 points in series [3] (T6, 12 weeks, nerve block 0.5% lidocaine once a week, listed as control group). Moreover, the “Decrease in pain intensity (PI-NRS) from T0” value turned out to be 1.61 points in series [3] (T0 to T1 (2 weeks), nerve block 0.5% lidocaine once a week) and 4.76 points in series [3] (T0 to T6 (12 weeks), nerve block 0.5% lidocaine once a week).
With `CC(C)C[C@H](CN)CC(=O)O` [Pregabalin, pregabalin], in series [1] (pregabalin group), the “Mechanical threshold (von Frey), Before” value was 2.42 ± 0.81 g. Besides, the “Mechanical threshold (von Frey), After” value in series [1] (after pregabalin 30 mg/kg intraperitoneally once a day for one week) is 9.91 ± 4.12 g. Also, the “Effect on mechanical allodynia (in words)” value in series [1] is given as “significantly suppressed mechanical allodynia”.
